The source made the active and inactive calls.
Key:
DU-145 [1] = assay: Inhibition of cancer stem cell activity in human DU-145 cells assessed as decrease in KLF4 protein expression at 20 uM incubated for 48 hrs by Western blot analysis; type: functional, cell-based
DU-145 [2] = assay: Inhibition of epithelial mesenchymal transition in human DU-145 cells assessed as downregulation of Vimentin protein expression at 20 uM incubated for 48 hrs by Western blot analysis; type: functional, cell-based
DU-145 [3] = assay: Inhibition of epithelial mesenchymal transition in human DU-145 cells assessed as downregulation of N-cadherin protein expression at 20 uM incubated for 48 hrs by Western blot analysis; type: functional, cell-based
DU-145 [4] = assay: Inhibition of epithelial mesenchymal transition in human DU-145 cells assessed as downregulation of ZEBI protein expression at 20 uM incubated for 48 hrs by Western blot analysis; type: functional, cell-based
PC-3 [5] = assay: Synergistic antiproliferative activity against human PC-3 cells assessed as combination index incubated for 24 hrs in the presence of enzalutamide by MTT assay; type: functional
PC-3 [6] = assay: Inhibition of epithelial mesenchymal transition in human PC-3 cells assessed as downregulation of N-cadherin protein expression at 20 uM incubated for 48 hrs by Western blot analysis; type: functional, cell-based
DU-145 [7] = assay: Synergistic antiproliferative activity against human DU-145 cells assessed as combination index incubated for 24 hrs in the presence of enzalutamide by MTT assay; type: functional
PC-3 [8] = assay: Inhibition of epithelial mesenchymal transition in human PC-3 cells assessed as upregulation of ZO-1 protein expression at 20 uM incubated for 48 hrs by Western blot analysis; type: functional, cell-based
PC-3 [9] = assay: Inhibition of cancer stem cell activity in human PC-3 cells assessed as decrease in KLF4 protein expression at 20 uM incubated for 48 hrs by Western blot analysis; type: functional, cell-based
DU-145 [10] = assay: Antimetastatic activity in human DU-145 cells assessed as inhibition of cell invasion at 20 uM incubated for 24 hrs by transwell invasion assay; type: functional, cell-based
[11] = molecular target: T1, Forkhead box protein C2 (Homo sapiens) (UniProt Q99958); assay: Induction of FOXC2 degradation in human DU-145 cells assessed as decrease in FOXC2 protein level at 20 uM incubated for 48 hrs by Western blot analysis; type: cell-based
T1 sequence (whole entry): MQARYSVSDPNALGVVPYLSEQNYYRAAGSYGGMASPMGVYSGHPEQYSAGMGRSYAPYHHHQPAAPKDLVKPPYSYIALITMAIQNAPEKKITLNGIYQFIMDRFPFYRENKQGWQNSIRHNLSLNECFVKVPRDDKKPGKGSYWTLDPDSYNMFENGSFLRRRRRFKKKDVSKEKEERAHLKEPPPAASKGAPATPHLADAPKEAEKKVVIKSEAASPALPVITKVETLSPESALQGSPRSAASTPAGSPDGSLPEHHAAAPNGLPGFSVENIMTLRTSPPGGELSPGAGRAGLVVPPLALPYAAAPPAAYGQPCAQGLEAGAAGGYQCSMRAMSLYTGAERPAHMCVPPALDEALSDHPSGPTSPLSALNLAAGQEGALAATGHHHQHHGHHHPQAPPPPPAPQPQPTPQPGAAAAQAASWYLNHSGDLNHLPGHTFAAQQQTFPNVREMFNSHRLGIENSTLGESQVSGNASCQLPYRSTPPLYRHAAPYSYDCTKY

PC-3 [12] = assay: Inhibition of epithelial mesenchymal transition in human PC-3 cells assessed as upregulation of E-cadherin protein expression at 20 uM incubated for 48 hrs by Western blot analysis; type: functional, cell-based
LNCaP [13] = assay: Synergistic antiproliferative activity against human LNCaP cells assessed as inhibition of cell growth in presence of docetaxel by MTT assay; type: functional, cell-based
DU-145 [14] = assay: Effect on FOXC2 gene expression level in human DU-145 cells; type: functional, cell-based
PC-3 [15] = assay: Inhibition of epithelial mesenchymal transition in human PC-3 cells assessed as downregulation of Vimentin protein expression at 20 uM incubated for 48 hrs by Western blot analysis; type: functional, cell-based
PC-3 [16] = assay: Inhibition of epithelial mesenchymal transition in human PC-3 cells assessed as downregulation of Slug protein expression at 20 uM incubated for 48 hrs by Western blot analysis; type: functional, cell-based
DU-145 [17] = assay: Inhibition of cancer stem cell activity in human DU-145 cells assessed as decrease in C-myc protein expression at 20 uM incubated for 48 hrs by Western blot analysis; type: functional, cell-based
PC-3 [18] = assay: Effect on FOXC2 gene expression level in human PC-3 cells; type: functional, cell-based
DU-145 [19] = assay: Antiproliferative activity against human DU-145 cells assessed as reduction in cell viability by MTT assay; type: functional, cell-based
PC-3 [20] = assay: Inhibition of cancer stem cell activity in human PC-3 cells assessed as decrease in Nanog protein expression at 20 uM incubated for 48 hrs by Western blot analysis; type: functional, cell-based
PC-3 [21] = assay: Antiproliferative activity against human PC-3 cells assessed as reduction in cell viability by MTT assay; type: functional, cell-based
PC-3 [22] = assay: Antimetastatic activity in human PC-3 cells assessed as inhibition of cell invasion at 20 uM incubated for 24 hrs by transwell invasion assay; type: functional, cell-based
[23] = molecular target: T1, Forkhead box protein C2 (Homo sapiens); assay: Induction of FOXC2 degradation in human PC-3 cells assessed as decrease in FOXC2 protein level at 20 uM incubated for 48 hrs by Western blot analysis; type: cell-based
PC-3 [24] = assay: Inhibition of epithelial mesenchymal transition in human PC-3 cells assessed as downregulation of ZEBI protein expression at 20 uM incubated for 48 hrs by Western blot analysis; type: functional, cell-based
DU-145 [25] = assay: Inhibition of epithelial mesenchymal transition in human DU-145 cells assessed as upregulation of ZO-1 protein expression at 20 uM incubated for 48 hrs by Western blot analysis; type: functional, cell-based
DU-145 [26] = assay: Synergistic antiproliferative activity against human DU-145 cells assessed as reduction in cell viability incubated for 24 hrs in the presence of docetaxel by MTT assay; type: functional, cell-based
PC-3 [27] = assay: Inhibition of cancer stem cell activity in human PC-3 cells assessed as decrease in C-myc protein expression at 20 uM incubated for 48 hrs by Western blot analysis; type: functional, cell-based
PC-3 [28] = assay: Synergistic antiproliferative activity against human PC-3 cells assessed as reduction in cell viability incubated for 24 hrs in the presence of docetaxel by MTT assay; type: functional, cell-based
DU-145 [29] = assay: Inhibition of epithelial mesenchymal transition in human DU-145 cells assessed as upregulation of E-cadherin protein expression at 20 uM incubated for 48 hrs by Western blot analysis; type: functional, cell-based
DU-145 [30] = assay: Inhibition of epithelial mesenchymal transition in human DU-145 cells assessed as downregulation of Slug protein expression at 20 uM incubated for 48 hrs by Western blot analysis; type: functional, cell-based
DU-145 [31] = assay: Inhibition of cancer stem cell activity in human DU-145 cells assessed as decrease in Nanog protein expression at 20 uM incubated for 48 hrs by Western blot analysis; type: functional, cell-based
LNCaP [32] = assay: Antimetastatic activity in human LNCaP cells assessed as inhibition of cell invasion by measuring change in number of invading cells by transwell invasion assay; type: functional, cell-based

N=C(N)NCCCCNc1nc(Nc2ccc(Oc3ccccc3)cc2)nc(N2CCN(c3nc(N)nc(Nc4ccc(N5CCOCC5)cc4)n3)CC2)n1
>1: CI (PC-3 [5]) | CI (DU-145 [7])
53.2 µM: EC50 (PC-3 [21])
48.1 µM: EC50 (DU-145 [19])
active: inhibition (DU-145 [1]) | inhibition (DU-145 [2]) | inhibition (DU-145 [3]) | inhibition (DU-145 [4]) | inhibition (PC-3 [6]) | inhibition (PC-3 [8]) | inhibition (PC-3 [9]) | Activity (DU-145 [10]) | Activity [11] | inhibition (PC-3 [12]) | inhibition (PC-3 [15]) | inhibition (PC-3 [16]) | inhibition (DU-145 [17]) | inhibition (PC-3 [20]) | Activity (PC-3 [22]) | Activity [23] | inhibition (PC-3 [24]) | inhibition (DU-145 [25]) | Activity (DU-145 [26]) | inhibition (PC-3 [27]) | Activity (PC-3 [28]) | inhibition (DU-145 [29]) | inhibition (DU-145 [30]) | inhibition (DU-145 [31])
inactive: Activity (LNCaP [13]) | Activity (DU-145 [14]) | Activity (PC-3 [18]) | Activity (LNCaP [32])

CC(=O)O[C@@]12CO[C@@H]1C[C@H](O)[C@@]1(C)C(=O)[C@H](O)C3=C(C)[C@@H](OC(=O)[C@H](O)[C@@H](NC(=O)OC(C)(C)C)c4ccccc4)C[C@@](O)([C@@H](OC(=O)c4ccccc4)[C@H]21)C3(C)C [DOCETAXEL ANHYDROUS]
0.0076 µM: EC50 (PC-3 [21])
0.00605 µM: EC50 (DU-145 [19])

CNC(=O)c1ccc(N2C(=S)N(c3ccc(C#N)c(C(F)(F)F)c3)C(=O)C2(C)C)cc1F
inactive: Activity (DU-145 [19]) | Activity (PC-3 [21])

— ChEMBL document CHEMBL5321252, “A FOXC2 inhibitor, MC-1-F2, as a therapeutic candidate for targeting EMT in castration-resistant prostate cancer” (Bioorg Med Chem Lett, 2023)
